# Measurements reported in US20230242496A1, “SOX11 INHIBITORS FOR TREATING MANTLE CELL LYMPHOMA” (Icahn School of Medicine At Mount Sinai, priority 2020, published 2023).
# Target: T1, (His)6-SOX11-DBD protein (Homo sapiens, UniProt P35716)
# T1 construct: Recombinant (His)6-SOX11-DBD protein was immobilized
# T1 sequence (P35716 49-117 limits assumed): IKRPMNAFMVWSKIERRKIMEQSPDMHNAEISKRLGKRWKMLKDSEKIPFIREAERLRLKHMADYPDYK
# Assay: Surface Plasmon Resonance (SPR) assay
# Format: binding
# Settings: immobilized recombinant (His)6-SOX11-DBD, 25° C., compounds 5-40 μM, mean of three experiments
# Method: Surface Plasmon Resonance (SPR) Assay
# Recombinant (His)6-SOX11-DBD protein was immobilized at a flow rate of 10 μl/min for 180 seconds to the right channel of a gold-coated SCR NiHC200M sensor chip (XanTec bioanalytics) placed in a Reichert 2SPR instrument (Reichert Technologies). The left channel, without immobilized protein, was used as a reference. […] Compounds flowed sequentially from the left to the right channel over the prepared sensor chip surface. 120 seconds association phase with each compound concentration was followed by 300 seconds dissociation phase with the assay buffer alone. The ka, kd, and KD values were determined from the sensograms for at least 3 concentrations of each compound by curve fitting the data using Reichert's TraceDrawer software. The mean KD value for each compound was calculated from three separate experiments.
row,SMILES,Kd [µM]
1,CN(Cc1ccccc1)c1ccc(CNc2ccc3cccnc3c2)cc1,9.27
2,FC(F)(F)c1cc(CNc2ccc3cncnc3c2)ccc1OCc1ccccc1,4.89
3,CC(=O)N1CCN(S(=O)(=O)c2ccc(NC(=O)c3ccc4snnc4c3)cc2)CC1,16.9
4,CN1C(=O)CSc2ccc(C(=O)Nc3ccc(S(C)(=O)=O)cc3)cc21,82.1
5,COc1cccc(NC(=O)Nc2cc(Nc3cccc(S(=O)(=O)N4CCCC4)c3)ncn2)c1,16.5
6,CN(Cc1cccc(NC(=O)c2ccc3oc(=O)[nH]c3c2)c1)c1ccccc1,13.6
7,CN(c1ccccc1)S(=O)(=O)c1ccc(NC(=O)c2ccc3c(c2)CCCS3)cc1,21.7
8,O=C(Cc1ccccc1[N+](=O)[O-])Nc1cccc(C(=O)Nc2ccc(CN3CCCC3)cc2)c1,247
9,CN(c1cccc(Cl)c1)S(=O)(=O)c1ccc(NC(=O)c2ccc3c(c2)CCCS3)cc1,14.2
10,CC1Sc2ccc(C(=O)Nc3ccc(OCc4cccc(S(=O)(=O)F)c4)cc3)cc2NC1=O (centres unmarked),7.17
11,CCN1C(=O)CSc2ccc(C(=O)Nc3ccc(S(=O)(=O)N4CCCCC4)cc3)cc21,7.52
12,CN(c1ccccc1Cl)S(=O)(=O)c1ccc(NC(=O)c2ccc3c(c2)CCCS3)cc1,2.39
13,Cc1cc(OCc2ccccc2)ccc1CNc1ccc2cncnc2c1,9.24
14,CN(c1ccccc1)S(=O)(=O)c1ccc(NC(=O)c2ccc(/C=C/C(=O)O)cc2)cc1,106
15,Cc1cccc(N(C)S(=O)(=O)c2ccc(NC(=O)c3ccc4c(c3)CCCS4)cc2)c1,4.55
16,Cc1ccc(N(C)S(=O)(=O)c2ccc(NC(=O)c3ccc4c(c3)CCCS4)cc2)cc1,2.73
17,Clc1ccccc1COc1ccc(CNc2ccc3cncnc3c2)cc1,7.88
18,Cc1ccccc1COc1ccc(CNc2ccc3cncnc3c2)cc1,11.1
19,FC(F)(F)c1cc(OCc2ccccc2)ccc1CNc1ccc2cncnc2c1,5.28
20,CN(Cc1ccc(NC(=O)c2ccc3c(c2)N(C)C(=O)CS3)cc1)c1ccccc1,8.1

row,SMILES,Kd [µM]
1,c1ccc(CNc2ccc(CNc3ccc4cncnc4c3)cc2)cc1,30.6
2,Cc1ccc(C(=O)Nc2ccc(S(=O)(=O)Nc3ccccc3)cc2)cc1NC(=O)CCc1c[nH]cn1,72.1
3,CCN(c1ccccc1)S(=O)(=O)c1ccc(NC(=O)c2ccc3c(c2)CCCS3)cc1,130
4,Cc1cc(C(=O)Nc2ccc(S(=O)(=O)Nc3ccccc3)cc2)nc(NCCN)n1,22.1
5,O=C1CSc2ccc(C(=O)Nc3ccc(CNc4ccccc4)cc3)cc2N1,1.74
6,CN1C(=O)COc2ccc(C(=O)Nc3ccc(S(=O)(=O)N4CCCCCC4)cc3)cc21,4.94
7,CN1C(=O)CSc2ccc(C(=O)Nc3ccc(S(C)(=O)=O)c(Cl)c3)cc21,141
8,CN(Cc1cccc(NC(=O)c2ccc3c(c2)CCCS3)c1)c1ccccc1,37.5
9,CN(Cc1ccc(NC(=O)c2ccc3nn[nH]c3c2)cc1)c1ccccc1,2.9
10,CC(=O)N1CCN(S(=O)(=O)c2ccc(NC(=O)c3ccc4c(c3)CCCS4)cc2)CC1,24.1
11,CN1C(=O)CSc2ccc(C(=O)Nc3ccc(CN4CCCCC4)cc3)cc21,129
12,Clc1cc(CNc2ccc3cncnc3c2)ccc1OCc1ccccc1,4.01
13,CN(Cc1ccccc1)c1ccc(CNc2ccc3cncnc3c2)cc1,20.7
14,CC1Sc2ccc(C(=O)Nc3cccc(CNc4cccc(OS(=O)(=O)F)c4)c3)cc2NC1=O (centres unmarked),11.2
15,CN(c1ccccc1)S(=O)(=O)c1ccc(NC(=O)c2ccc(SCC(=O)O)cc2)cc1,11
16,Cc1cc(C(=O)Nc2ccc(S(=O)(=O)Nc3ccccc3)cc2)nc(NC2CCC(N)CC2)n1 (centres unmarked),94.6
17,O=C1COc2ccc(C(=O)Nc3ccc(CNc4ccccc4)cc3)cc2N1,5.28
18,CCCCN1C(=O)CSc2ccc(C(=O)Nc3ccc(S(=O)(=O)N4CCCCC4)cc3)cc21,25.2
19,CC1Sc2ccc(C(=O)Nc3cccc(OCc4ccc(OS(=O)(=O)F)cc4)c3)cc2NC1=O (centres unmarked),19.1
20,CC(=O)NCc1cccc(Nc2nc(Nc3cccc(S(=O)(=O)N4CCCC4)c3)ncc2C)c1,163

row,SMILES,Kd [µM]
1,O=C(Nc1ccc(S(=O)(=O)N2CCCCC2)cc1)c1ccc2c(c1)N(c1ccccc1)C(=O)CS2,6.67
2,Cc1cnc(Nc2cccc(S(=O)(=O)N3CCCC3)c2)nc1Nc1cccc(N)c1,105
3,CN(Cc1ccc(NC(=O)c2ccc3c(c2)NC(=O)CS3)cc1)c1ccccc1,24.8
4,Clc1cccc(COc2ccc(CNc3ccc4cncnc4c3)cc2)c1,3.28
5,Cc1cc(Nc2cc(C(=O)Nc3ccc(S(=O)(=O)Nc4ccccc4)cc3)ccc2C)nc(N)n1,80.7
6,O=C(Nc1cccc(OCc2ccccc2)c1)c1ccc2oc(=O)[nH]c2c1,12.4
7,CC(=O)NCCNc1nc(C)cc(C(=O)Nc2ccc(S(=O)(=O)Nc3ccccc3)cc2)n1,89.6
8,Cc1ccc(C(=O)Nc2ccc(S(=O)(=O)Nc3ccccc3)cc2)cc1NC(=O)Cc1cc(=O)[nH]c(=O)[nH]1,61.9
9,O=C(Nc1ccc(S(=O)(=O)N2CCCCC2)cc1)c1ccc2c(c1)N(Cc1ccccc1)C(=O)CS2,15.7
10,c1ccc(OCc2ccc(CNc3ccc4cncnc4c3)cc2)cc1,12
11,Nc1ccccc1CC(=O)Nc1cccc(C(=O)Nc2ccc(CN3CCCC3)cc2)c1,15.4
12,CC1Sc2ccc(C(=O)Nc3cccc(S(=O)(=O)F)c3)cc2NC1=O (centres unmarked),35.5
13,CN(Cc1cccc(NC(=O)c2ccc3snnc3c2)c1)c1ccccc1,38.8
14,Cc1ccccc1N(C)S(=O)(=O)c1ccc(NC(=O)c2ccc3c(c2)CCCS3)cc1,10.3
15,CN(c1ccc(Cl)cc1)S(=O)(=O)c1ccc(NC(=O)c2ccc3c(c2)CCCS3)cc1,10.8
16,CN(Cc1ccc(NC(=O)c2ccc3oc(=O)[nH]c3c2)cc1)c1ccccc1,15.6
17,Cc1cc(C(=O)Nc2ccc(OCc3ccccc3)cc2)nc(NCCN)n1,122
18,O=C(Nc1cccc(CNc2ccccc2)c1)c1ccc2oc(=O)[nH]c2c1,18.2
19,CN(c1ccccc1)S(=O)(=O)c1ccc(NC(=O)c2ccc3c(c2)CCCS3)cc1C(F)(F)F,5.62
20,O=C(Nc1ccc(CNc2ccccc2)cc1)c1ccc2oc(=O)[nH]c2c1,7.91

# System: Jeko-1 (SOX11+)
# Assay: Cell viability assay (CellTiter-Blue resazurin reduction)
# Format: cell-based
# Settings: Homo sapiens, JeKo-1, 72 h, JeKo-1 cells, 0-40 μM
# Method: Cell viability was determined by a fluorometric resazurin reduction method (CellTiter-Blue; Promega, Madison, Wis.) following the manufacturer's instructions. […] Cells were incubated for 72 hours. After incubation, 20 μl CellTiter-Blue Cell was added to each well and incubated for another 2 hours. […] The number of viable cells in each treated well was calculated, based on the linear least squares regression of the standard curve (OD vs. cell concentration). The viability of cells treated with compounds was normalized to the viability of cells treated with 0.2% Dimethyl sulfoxide (DMSO). Cell counts were confirmed with Trypan Blue Exclusion Assay on the Countess automated cell counter (Invitrogen) according to the manufacturer's specifications. The average and mean standard deviation were calculated from three separate experiments. IC50 values were calculated using the GraphPad Prism (version 4.00) based on a sigmoidal dose-response equation.
row,SMILES,IC50 [µM]
1,C[C@H]1Sc2ccc(C(=O)Nc3ccc(S(=O)(=O)Nc4ccccc4)cc3)cc2NC1=O,12.5
2,CC1Sc2ccc(C(=O)Nc3ccc(S(=O)(=O)Nc4ccccc4F)cc3)cc2NC1=O (centres unmarked),15
3,CC1Sc2ccc(C(=O)Nc3cccc(S(=O)(=O)Nc4cccc(C(F)(F)F)c4)c3)cc2NC1=O (centres unmarked),10
4,CC1Sc2ccc(C(=O)Nc3ccc(S(=O)(=O)Nc4ccccc4)cc3C(F)(F)F)cc2NC1=O (centres unmarked),5
5,O=C(Nc1ccc(S(=O)(=O)Nc2ccccc2)cc1)c1ccc2nn[nH]c2c1,12
6,Cc1cc(S(=O)(=O)Nc2ccccc2)ccc1NC(=O)c1ccc2c(c1)NC(=O)C(C)S2 (centres unmarked),20
7,CC1Sc2ccc(C(=O)Nc3ccc(S(=O)(=O)Nc4ccccc4)cc3)cc2NC1=O (centres unmarked) [drawing 599],12.5

# Same assay, conditions: Homo sapiens, JeKo-1, 72 h, JeKo-1 cells, 20 μM compound, normalized to 0.2% DMSO
row,SMILES,viability at 20 µM [%]
1,CC1Sc2ccc(C(=O)Nc3ccc(OCc4ccccc4)cc3)cc2NC1=O (centres unmarked),104
2,CC1Sc2ccc(C(=O)Nc3ccc(S(=O)(=O)Nc4ccccc4F)cc3)cc2NC1=O (centres unmarked),21.2
3,CC1Sc2ccc(C(=O)Nc3cccc(S(=O)(=O)Nc4cccc(C(F)(F)F)c4)c3)cc2NC1=O (centres unmarked),16.8
4,CC1Sc2ccc(C(=O)Nc3ccc(OCc4ccccc4C(F)(F)F)cc3)cc2NC1=O (centres unmarked),106
5,CC1Sc2ccc(C(=O)Nc3ccc(S(=O)(=O)Nc4ccccc4)cc3C(F)(F)F)cc2NC1=O (centres unmarked),1.38
6,O=C(Nc1ccc(S(=O)(=O)Nc2ccccc2)cc1)c1ccc2nn[nH]c2c1,5.75
7,Cc1cc(S(=O)(=O)Nc2ccccc2)ccc1NC(=O)c1ccc2c(c1)NC(=O)C(C)S2 (centres unmarked),51.1
8,CC1Sc2ccc(C(=O)Nc3cccc(OCc4ccccc4C(F)(F)F)c3)cc2NC1=O (centres unmarked),87.1

# Same assay, conditions: JeKo-1 cells, 20 μM compound, 72 hours, normalized to 0.2% DMSO; 20 µM
row,SMILES,Jeko-1 Viability at 20 μM (%)
1,O=C1CSc2ccc(C(=O)Nc3ccc(S(=O)(=O)Nc4ccccc4)cc3)cc2N1 [drawing 503],2.73
2,O=C1CSc2ccc(C(=O)Nc3ccc(S(=O)(=O)Nc4ccccc4)cc3)cc2N1 [drawing 513],79.21
3,CC1Sc2ccc(C(=O)Nc3ccc(S(=O)(=O)Nc4ccccc4)cc3)cc2NC1=O (centres unmarked) [drawing 599],6.36

# Same assay, conditions: JeKo-1 cells, 72 hours, 0-40 μM
row,SMILES,IC50 [µM]
1,O=C1CSc2ccc(C(=O)Nc3ccc(S(=O)(=O)Nc4ccccc4)cc3)cc2N1 [drawing 503],7.5
2,O=C1CSc2ccc(C(=O)Nc3ccc(S(=O)(=O)Nc4ccccc4)cc3)cc2N1 [drawing 513],> 20
